# Test results from patent US20240360178A1, “MACROCYCLIC IMMUNOMODULATORS” (Bristol-Myers Squibb Company, priority 2021, published 2024).
# Positions of bridges follow the written chain, without caps; N, C: chain ends. Non-standard residues stand in square brackets, D forms with d. Residues, ends and D or L forms follow the SMILES beside them. *: point of attachment. Phe(4-COOH) = N[C@@H](Cc1ccc(C(=O)O)cc1)C(=O)O; Phe(4-CH2NH2) = NCc1ccc(C[C@H](N)C(=O)O)cc1; Bip = N[C@@H](Cc1ccc(-c2ccccc2)cc1)C(=O)O; Phe(3-OMe) = COc1cccc(C[C@H](N)C(=O)O)c1; Ala(cPent) = N[C@@H](CC1CCCC1)C(=O)O; Val(3-OH) = CC(C)(O)[C@H](N)C(=O)O; NMeF = CN[C@@H](Cc1ccccc1)C(=O)O; 4Pal = N[C@@H](Cc1ccncc1)C(=O)O; Cha = N[C@@H](CC1CCCCC1)C(=O)O; Cit = NC(=O)NCCC[C@H](N)C(=O)O; Carboxymethyl = O=C(O)C*; NMeA = CN[C@@H](C)C(=O)O; Orn = NCCC[C@H](N)C(=O)O; Dab = NCC[C@H](N)C(=O)O; Aib = CC(C)(N)C(=O)O; Sar = CNCC(=O)O
# Biological target: T1, human PD-1 (Jurkat-PD-1 cells) / PE-labeled human PD-L1-Ig (Homo sapiens, UniProt Q15116)
# T1 construct: expressed in transfected cells; host or cells: Jurkat cell line over-expressing human PD-1
# T1 sequence (Q15116 25-288): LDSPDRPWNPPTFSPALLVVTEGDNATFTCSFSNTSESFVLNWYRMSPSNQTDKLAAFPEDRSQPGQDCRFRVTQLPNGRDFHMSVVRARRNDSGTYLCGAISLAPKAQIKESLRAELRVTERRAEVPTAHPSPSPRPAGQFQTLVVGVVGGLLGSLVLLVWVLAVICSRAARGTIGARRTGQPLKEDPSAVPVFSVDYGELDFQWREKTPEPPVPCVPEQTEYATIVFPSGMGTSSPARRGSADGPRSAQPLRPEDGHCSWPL
# Assay: Jurkat-PD-1 Cell Binding High-Content Screening Assay (CBA); Jurkat hPD1-PDL1 assay
# Conditions: Jurkat cell line over-expressing human PD-1; PE-labeled PD-L1-Ig 20 nM final; compound incubated 2 hours at 37° C.; read-out: Jurkat HPD1-PDL1 IC50
# How it was run: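 Jurkat cells over-expressing human PD-1, seeded in DMEM with 10% fetal calf serum, were preincubated with compound for 2 hours at 37° C. PE-labeled human PD-L1-Ig was then added at 20 nM final, and cell-bound fluorescence was read by high-content imaging.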
row,Compound,IC50
1,CC(C)C[C@@H]1NC(=O)[C@H](CCCNC(=N)N)NC(=O)[C@H](Cc2ccccc2)N(C)C(=O)[C@H](C)N(C)C(=O)[C@H](CCCNC(=N)N)NC(=O)[C@H](Cc2ccc(-c3ccccc3)cc2)NC(=O)[C@H](C(C)C)NC(=O)[C@H](Cc2c[nH]c3ccccc23)NC(=O)[C@H](CC(=O)O)NC(=O)[C@H](Cc2ccc(O)cc2)NC(=O)[C@H](CCCNC(=N)N)NC(=O)CSC[C@@H](C(=O)NCC(N)=O)NC(=O)[C@H](CO)NC(=O)[C@H](C(C)C)NC1=O [Example 1212] ({CH2CO}-RYDWV[Bip]R[NMeA][NMeF]RLVSCG-NH2; thioether N-14),610 nM
2,CC(C)C[C@@H]1NC(=O)[C@H](Cc2c[nH]c3ccccc23)NC(=O)[C@H](CC(=O)O)NC(=O)[C@H](Cc2ccc(OCC(=O)O)cc2)NC(=O)[C@H](Cc2ccncc2)NC(=O)CSC[C@@H](C(=O)N[C@@H](CCN)C(N)=O)NC(=O)[C@H](CO)NC(=O)[C@H](C(C)(C)O)NC(=O)[C@H](CC2CCCCC2)NC(=O)[C@H](CCN)NC(=O)[C@H]2CCCN2C(=O)[C@H](C)N(C)C(=O)[C@H](CCCNC(N)=O)NC(=O)[C@H](Cc2ccc(-c3ccccc3)cc2)NC1=O [Example 1181] ({CH2CO}-[4Pal]Y(Carboxymethyl)DWL[Bip][Cit][NMeA][dP][Dab][Cha][Val(3-OH)]SC[Dab]-NH2; thioether N-14),100 nM
3,CC(C)C[C@@H]1NC(=O)[C@H](CCCNC(=N)N)NC(=O)[C@H](Cc2ccccc2)N(C)C(=O)[C@H](C)N(C)C(=O)[C@H](CCCNC(=N)N)NC(=O)[C@H](Cc2ccc(-c3ccccc3)cc2)NC(=O)[C@H](C(C)C)NC(=O)[C@H](Cc2c[nH]c3ccccc23)NC(=O)[C@H](CC(=O)O)NC(=O)[C@H](Cc2ccc(O)cc2)NC(=O)[C@H](Cc2ccccc2)NC(=O)CSC[C@@H](C(=O)NC(C)(C)C(N)=O)NC(=O)[C@H](CO)NC(=O)[C@H](C(C)C)NC1=O [Example 1328] ({CH2CO}-FYDWV[Bip]R[NMeA][NMeF]RLVSC[Aib]-NH2; thioether N-14),480 nM
4,CC(C)C[C@@H]1NC(=O)CSC[C@@H](C(=O)N[C@@H](C)C(N)=O)NC(=O)[C@H](CO)NC(=O)[C@H](C(C)C)NC(=O)[C@H](CC(C)C)NC(=O)[C@H](CCCNC(=N)N)NC(=O)[C@H](Cc2ccccc2)N(C)C(=O)[C@H](C)N(C)C(=O)[C@H](CCCNC(=N)N)NC(=O)[C@H](Cc2ccc(-c3ccccc3)cc2)NC(=O)[C@H](C(C)C)NC(=O)[C@H](Cc2c[nH]c3ccccc23)NC(=O)[C@H](CC(=O)O)NC(=O)[C@H](Cc2ccc(O)cc2)NC1=O [Example 1308] ({CH2CO}-LYDWV[Bip]R[NMeA][NMeF]RLVSCA-NH2; thioether N-14),410 nM
5,CC(C)C[C@@H]1NC(=O)[C@H](CCCNC(=N)N)NC(=O)[C@H](Cc2ccccc2)N(C)C(=O)[C@H](C)N(C)C(=O)[C@H](CCCN)NC(=O)[C@H](Cc2ccc(-c3ccccc3)cc2)NC(=O)[C@H](C(C)C)NC(=O)[C@H](Cc2c[nH]c3ccccc23)NC(=O)[C@H](CC(=O)O)NC(=O)[C@H](Cc2ccc(O)cc2)NC(=O)[C@H](Cc2cnc[nH]2)NC(=O)CSC[C@@H](C(=O)NCC(N)=O)NC(=O)[C@H](CO)NC(=O)[C@H](C(C)C)NC1=O [Example 1292] ({CH2CO}-HYDWV[Bip][Orn][NMeA][NMeF]RLVSCG-NH2; thioether N-14),90 nM
6,CC(C)C[C@@H]1NC(=O)[C@H](Cc2c[nH]c3ccccc23)NC(=O)[C@H](CC(=O)O)NC(=O)[C@H](Cc2ccc(OCC(=O)O)cc2)NC(=O)[C@H](Cc2ccncc2)NC(=O)CSC[C@@H](C(=O)N[C@@H](C)C(N)=O)NC(=O)[C@H](CO)NC(=O)[C@H](C(C)C)NC(=O)[C@H](CC(C)C)NC(=O)[C@H](CC(N)=O)NC(=O)[C@H]2CCCN2C(=O)[C@H](C)N(C)C(=O)[C@H](C(C)C)NC(=O)[C@H](Cc2ccc(-c3ccccc3)cc2)NC1=O [Example 1391] ({CH2CO}-[4Pal]Y(Carboxymethyl)DWL[Bip]V[NMeA][dP]NLVSCA-NH2; thioether N-14),40 nM
7,CC(C)C[C@@H]1NC(=O)[C@H](Cc2c[nH]c3ccccc23)NC(=O)[C@H](CC(=O)O)NC(=O)[C@H](Cc2ccc(O)cc2)NC(=O)[C@H](Cc2ccccc2)NC(=O)CSC[C@@H](C(=O)N[C@@H](CCCNC(=N)N)C(N)=O)NC(=O)[C@H](CO)NC(=O)[C@H](C(C)C)NC(=O)[C@H](CC(C)C)NC(=O)[C@H](CC(N)=O)NC(=O)CN(C)C(=O)[C@H](C)N(C)C(=O)[C@H](C(C)C)NC(=O)[C@H](Cc2ccc(-c3ccccc3)cc2)NC1=O [Example 1254] ({CH2CO}-FYDWL[Bip]V[NMeA][Sar]NLVSCR-NH2; thioether N-14),850 nM
8,CC(C)C[C@@H]1NC(=O)[C@H](CCCNC(=N)N)NC(=O)[C@H](Cc2ccccc2)N(C)C(=O)[C@H](C)N(C)C(=O)[C@H](CCCNC(=N)N)NC(=O)[C@H](Cc2ccc(-c3ccccc3)cc2)NC(=O)[C@H](C(C)C)NC(=O)[C@H](Cc2c[nH]c3ccccc23)NC(=O)[C@H](CC(=O)O)NC(=O)[C@H](Cc2ccc(O)cc2)NC(=O)[C@H](Cc2ccccc2)NC(=O)CSC[C@@H](C(=O)N[C@@H](CCC(=O)O)C(N)=O)NC(=O)[C@H](CO)NC(=O)[C@H](C(C)C)NC1=O [Example 1105] ({CH2CO}-FYDWV[Bip]R[NMeA][NMeF]RLVSCE-NH2; thioether N-14),330 nM
9,CC(C)C[C@@H]1NC(=O)[C@H](Cc2c[nH]c3ccccc23)NC(=O)[C@H](CC(=O)O)NC(=O)[C@H](Cc2ccc(CN)cc2)NC(=O)[C@H](Cc2ccccc2)NC(=O)CSC[C@@H](C(=O)N[C@@H](C)C(N)=O)NC(=O)[C@H](CO)NC(=O)[C@H](C(C)C)NC(=O)[C@H](CC(C)C)NC(=O)[C@H](CC(N)=O)NC(=O)[C@H]2CCCN2C(=O)[C@H](C)N(C)C(=O)[C@H](C(C)C)NC(=O)[C@H](Cc2ccc(-c3ccccc3)cc2)NC1=O [Example 1040] ({CH2CO}-F[Phe(4-CH2NH2)]DWL[Bip]V[NMeA][dP]NLVSCA-NH2; thioether N-14),70 nM
10,CC(C)C[C@@H]1NC(=O)[C@H](Cc2c[nH]c3ccccc23)NC(=O)[C@H](CC(=O)O)NC(=O)[C@H](Cc2ccc(O)cc2)NC(=O)[C@H](Cc2ccccc2)NC(=O)CSC[C@@H](C(=O)N[C@@H](C)C(N)=O)NC(=O)[C@H]([C@@H](C)O)NC(=O)[C@H](C(C)C)NC(=O)[C@H](CC(C)C)NC(=O)[C@H](CCN)NC(=O)[C@H]2CCCN2C(=O)[C@H](CCCN)NC(=O)[C@H](C(C)C)NC(=O)[C@H](Cc2ccc(-c3ccccc3)cc2)NC1=O [Example 1422] ({CH2CO}-FYDWL[Bip]V[Orn][dP][Dab]LVTCA-NH2; thioether N-14),140 nM
11,CC(C)C[C@@H]1NC(=O)[C@H](Cc2c[nH]c3ccccc23)NC(=O)[C@H](CC(=O)O)NC(=O)[C@H](Cc2ccc(O)cc2)NC(=O)[C@H](Cc2ccccc2)NC(=O)CSC[C@@H](C(=O)N[C@@H](C)C(N)=O)NC(=O)[C@H](CO)NC(=O)[C@H](C(C)C)NC(=O)[C@H](CC(C)C)NC(=O)[C@H](CC(N)=O)NC(=O)CN(C)C(=O)[C@H](C)N(C)C(=O)[C@H](C(C)C)NC(=O)[C@H](Cc2ccc(-c3ccccc3)cc2)NC1=O [Example 1252] ({CH2CO}-FYDWL[Bip]V[NMeA][Sar]NLVSCA-NH2; thioether N-14),190 nM
12,CC(C)C[C@@H]1NC(=O)[C@H](Cc2c[nH]c3ccccc23)NC(=O)[C@H](CC(=O)O)NC(=O)[C@H](Cc2ccc(O)cc2)NC(=O)[C@H](Cc2ccccc2)NC(=O)CSC[C@@H](C(=O)NCC(N)=O)NC(=O)[C@H](CC(N)=O)NC(=O)[C@H](C(C)C)NC(=O)[C@H](CC(C)C)NC(=O)[C@H](CC(N)=O)NC(=O)CN(C)C(=O)[C@H](C)N(C)C(=O)[C@H](C(C)C)NC(=O)[C@H](Cc2ccc(-c3ccccc3)cc2)NC1=O [Example 1228] ({CH2CO}-FYDWL[Bip]V[NMeA][Sar]NLVNCG-NH2; thioether N-14),720 nM
13,CC(C)C[C@@H]1NC(=O)[C@H](C)NC(=O)[C@H]2CCCN2C(=O)[C@H](C)N(C)C(=O)[C@H](CCC(=O)O)NC(=O)[C@H](Cc2ccc(-c3ccccc3)cc2)NC(=O)[C@H](CC(C)C)NC(=O)[C@H](Cc2c[nH]c3ccccc23)NC(=O)[C@H](CC(=O)O)NC(=O)[C@H](Cc2ccc(O)cc2)NC(=O)[C@H](Cc2ccccc2)NC(=O)CSC[C@@H](C(=O)N[C@@H](C)C(N)=O)NC(=O)[C@H](CO)NC(=O)[C@H](C(C)C)NC1=O [Example 1028] ({CH2CO}-FYDWL[Bip]E[NMeA][dP]ALVSCA-NH2; thioether N-14),50 nM
14,CC(C)C[C@@H]1NC(=O)[C@H](CCCNC(=N)N)NC(=O)[C@H](Cc2ccccc2)N(C)C(=O)[C@H](C)N(C)C(=O)[C@H](CCCNC(=N)N)NC(=O)[C@H](Cc2ccc(-c3ccccc3)cc2)NC(=O)[C@H](C(C)C)NC(=O)[C@H](Cc2c[nH]c3ccccc23)NC(=O)[C@H](CC(=O)O)NC(=O)[C@H](Cc2ccc(O)cc2)NC(=O)[C@H](C)NC(=O)CSC[C@@H](C(=O)NCC(N)=O)NC(=O)[C@H](CO)NC(=O)[C@H](C(C)C)NC1=O [Example 1203] ({CH2CO}-AYDWV[Bip]R[NMeA][NMeF]RLVSCG-NH2; thioether N-14),850 nM
15,COc1cccc(C[C@@H]2NC(=O)[C@H](CC(=O)O)NC(=O)[C@H](Cc3ccc(C(=O)O)cc3)NC(=O)[C@H](Cc3ccncc3)NC(=O)CSC[C@@H](C(=O)N[C@@H](C)C(N)=O)NC(=O)[C@H](CO)NC(=O)[C@H](C(C)C)NC(=O)[C@H](CC(C)C)NC(=O)[C@H](CC(N)=O)NC(=O)[C@H]3CCCN3C(=O)[C@H](C)N(C)C(=O)[C@H](C(C)C)NC(=O)[C@H](Cc3ccc(-c4ccccc4)cc3)NC(=O)[C@H](CC(C)C)NC2=O)c1 [Example 1387] ({CH2CO}-[4Pal][Phe(4-COOH)]D[Phe(3-OMe)]L[Bip]V[NMeA][dP]NLVSCA-NH2; thioether N-14),10 nM
16,CC(C)C[C@@H]1NC(=O)[C@H](CC(N)=O)NC(=O)CN(C)C(=O)[C@H](C)N(C)C(=O)[C@H](C(C)C)NC(=O)[C@H](Cc2ccc(-c3ccccc3)cc2)NC(=O)[C@H](CC2CCCC2)NC(=O)[C@H](Cc2c[nH]c3ccccc23)NC(=O)[C@H](CC(=O)O)NC(=O)[C@H](Cc2ccc(O)cc2)NC(=O)[C@H](Cc2ccccc2)NC(=O)CSC[C@@H](C(=O)N[C@@H](C)C(N)=O)NC(=O)[C@H](CO)NC(=O)[C@H](C(C)C)NC1=O [Example 1147] ({CH2CO}-FYDW[Ala(cPent)][Bip]V[NMeA][Sar]NLVSCA-NH2; thioether N-14),660 nM
